Values joined by “and” are separate entries in the source; they are usually repeats but may differ in a detail not shown here. Equal entries are not always repeated. Where two headings read alike, the source gives them in different places.
Experiments:
Details in all cases: human, in vivo
[1] = test system: migraine
[2] = test system: migraine; remark: listed apart in the source
[3] = test system: chronic migraine
[4] = test system: chronic migraine; remark: listed apart in the source
[5] = test system: chronic migraine; remark: listed apart in the source

Molecule: CN(C)CCC=C1c2ccccc2CCc2ccccc21 [Amitriptyline, amitriptyline]
- adverse effect of oral preventive medication [1]: weight gain
- effect of oral preventive medication on headache frequency [1]: none of these reduced their headache frequency
- change of headaches with oral medication [2]: minimal change

Molecule: CC12CC3CC(C)(C1)CC(N)(C3)C2 [Namenda, memantine]
- benefit of added treatment [2]: minimal benefit

Molecule: CC(C)NCC(O)COc1cccc2ccccc12 (centres unmarked) [Propranolol]
- adverse effect of oral preventive medication [1]: limited their exercise tolerance
- effect of oral preventive medication on headache frequency [1]: none of these reduced their headache frequency

Molecule: C[C@@H]1[C@H](c2c(F)ccc(F)c2F)C[C@H](NC(=O)c2cnc3c(c2)C[C@@]2(C3)C(=O)Nc3ncccc32)C(=O)N1CC(F)(F)F [atogepant, reference compound]
- headache frequency [3]: 9 days a month

Molecule: CC1(C)O[C@@H]2[C@@H](CO[C@@]3(COS(N)(=O)=O)OC(C)(C)O[C@@H]23)O1 [topiramate]
- adverse effect of oral preventive medication [1]: cognitive slowing
- effect of oral preventive medication on headache frequency [1]: none of these reduced their headache frequency
- change of headaches with oral medication [2]: minimal change
- headache control with oral preventive medication ([4]; po): without headache control

Molecule: OnabotulinumtoxinA
- headache frequency [3]: 10 days a month
- headache intensity [1]: 7 out of 10
- headache frequency [2]: 10/30
- headache intensity [2]: 6-7 out of a scale of 10
- headache frequency post treatment [5]: 14 days/month
- improvement of headache days from baseline [4]: about 50%
- migraine days per month [4]: 15 days per month

B1: Ajovy (antibody, chains of the INN, looked up, V domains shown)
VH: EVQLVESGGGLVQPGGSLRLSCAASGFTFSNYWISWVRQAPGKGLEWVAEIRSESDASATHYAEAVKGRFTISRDNAKNSLYLQMNSLRAEDTAVYYCLAYFDYGLAIQNYWGQGTLVTVSS
VL: EIVLTQSPATLSLSPGERATLSCKASKRVTTYVSWYQQKPGQAPRLLIYGASNRYLGIPARFSGSGSGTDFTLTISSLEPEDFAVYYCSQSYNYPYTFGQGTKLEIK
- headache intensity ([1]; sc): lower intensity

B2: erenumab (antibody, chains of the INN, looked up, V domains shown)
VH: QVQLVESGGGVVQPGRSLRLSCAASGFTFSSFGMHWVRQAPGKGLEWVAVISFDGSIKYSVDSVKGRFTISRDNSKNTLFLQMNSLRAEDTAVYYCARDRLNYYDSSGYYHYKYYGMAVWGQGTTVTVSS
VL: QSVLTQPPSVSAAPGQKVTISCSGSSSNIGNNYVSWYQQLPGTAPKLLIYDNNKRPSGIPDRFSGSKSGTSTTLGITGLQTGDEADYYCGTWDSRLSAVVFGGGTKLTVL
- headache frequency [5]: 10 days/month and 15 days/month
